Activity calls are given as the source filed them. The calls are words filed in the database; no cut-off is given here.

A word on the IC50: it is the point on the concentration scale where inhibition reaches its midpoint. One may read the bioavailability as dose-corrected exposure relative to a reference, in per cent. A low value points to poor availability. The clearance is the rate of elimination divided by the concentration. Low readings indicate a low capacity for elimination, high ones a high capacity for elimination.

The target in data set [1] is T1, Acyl-CoA desaturase 1 (Mus musculus, UniProt P13516).
T1 sequence (P13516 whole entry): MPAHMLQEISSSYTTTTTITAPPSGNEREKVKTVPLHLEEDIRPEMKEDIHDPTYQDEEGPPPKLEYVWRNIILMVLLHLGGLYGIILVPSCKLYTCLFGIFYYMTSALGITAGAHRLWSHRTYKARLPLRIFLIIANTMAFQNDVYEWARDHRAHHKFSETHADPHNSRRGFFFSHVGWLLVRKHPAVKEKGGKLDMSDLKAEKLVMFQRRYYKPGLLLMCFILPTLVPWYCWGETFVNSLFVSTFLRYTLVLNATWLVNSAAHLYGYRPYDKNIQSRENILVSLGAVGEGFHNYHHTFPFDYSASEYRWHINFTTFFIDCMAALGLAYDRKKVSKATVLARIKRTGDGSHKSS
Description: Inhibition of mouse SCD1.

Data set [2] can be described thus: Inhibition of human recombinant SCD1 expressed in baculovirus/insect cell system.
In data set [3] the test system is Mus musculus. In words: Reduction in desaturation index in liver of ob/ob mouse assessed as ratio of C16:0/C16:1n7 at 30 mg/kg bid. In kind it is functional, organism-based. More on the design: dose 30 mg/kg.
Data set [4] concerns Mus musculus. In words: Reduction in desaturation index in plasma of ob/ob mouse assessed as ratio of C18:0/C18:1n9 at 30 mg/kg bid. In kind it is functional, organism-based. On the set-up: dose 30 mg/kg.
In data set [5] the test system is Mus musculus. Description: Reduction in desaturation index in liver of ob/ob mouse assessed as ratio of C18:0/C18:1n9 at 30 mg/kg bid. Format: functional, organism-based. On the set-up: dose 30 mg/kg.
For data set [6], the system named is Mus musculus. Description: Reduction in desaturation index in plasma of ob/ob mouse assessed as ratio of C16:0/C16:1n7 at 30 mg/kg bid. In kind it is functional, organism-based. More on the design: dose 30 mg/kg.
The test system of data set [7] is Mus musculus. In words: Reduction in desaturation index in liver of ob/ob mouse assessed as ratio of C16:0/C16:1n7 at 10 mg/kg bid. In kind it is functional, organism-based. On the set-up: dose 10 mg/kg.
The test system of data set [8] is Mus musculus. Description: Reduction in desaturation index in plasma of ob/ob mouse assessed as ratio of C18:0/C18:1n9 at 10 mg/kg bid. Format: functional, organism-based. More on the design: dose 10 mg/kg.
A short description of data set [9]: Oral bioavailability in mouse. In kind it is ADME, organism-based. The note with it: in vivo.
For data set [10], the species on record is Mus musculus. In words: Reduction in triglyceride desaturation index in ob/ob mouse. In kind it is functional, organism-based.
In data set [11] the test system is Mus musculus. Description: Reduction in desaturation index in liver of ob/ob mouse assessed as ratio of C18:0/C18:1n9 at 10 mg/kg bid. In kind it is functional, organism-based. More on the design: dose 10 mg/kg.
For data set [12], the system named is Mus musculus. In words: Reduction in desaturation index in plasma of ob/ob mouse assessed as ratio of C16:0/C16:1n7 at 10 mg/kg bid. On the set-up: dose 10 mg/kg. In kind it is functional, organism-based.
The nature of data set [13]: Inhibition of cytochrome b5 reductase at >10 uM.
Data set [14] concerns the target Cytochrome b5 (Homo sapiens) (UniProt P00167). Description: Inhibition of cytochrome b5 at >10 uM.
Data set [15] can be described thus: Clearance in mouse plasma. In kind it is ADME, organism-based.
A short description of data set [16]: Volume of distribution at steady state in mouse. Format: ADME, organism-based. The settings on record: in vivo, read-out: Vdss.

Chain of Cytochrome b5 (Homo sapiens) (P00167 whole entry): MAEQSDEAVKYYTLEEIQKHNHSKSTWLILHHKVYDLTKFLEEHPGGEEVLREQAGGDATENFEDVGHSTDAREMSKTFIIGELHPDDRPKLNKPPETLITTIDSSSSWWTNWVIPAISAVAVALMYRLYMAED

In the case of `CNC(=O)c1cccc(NC(=O)N2CCC(Oc3ccccc3Br)CC2)c1`, the IC50 was under 4 nM in data set [1] and 30 nM in data set [2].

Turning to `CC(C)(C)NC(=O)c1cccc(NC(=O)N2CCC(Oc3ccccc3Cl)CC2)c1`, the IC50 in [1] and in data set [2] was over 10000 nM in each case.

For the molecule `CNC(=O)c1cccc(NC(=O)N2CCN(C(=O)c3ccccc3C(F)(F)F)CC2)c1`, 700 nM corresponded to half-maximal inhibition in data set [1] (IC50).

Consider `O=C(Nc1cccc(-c2ncc[nH]2)c1)N1CCC(Oc2ccccc2Cl)CC1`, for which the IC50 in [1] turned out to be 10 nM; in [2], 360 nM.

In the case of `CNC(=O)c1cccc(NC(=O)N2CCC(Oc3ccccc3F)CC2)c1`, the result in [3], in data set [4], in data set [5] and in data set [6] was Active. Further, the IC50 worked out at 98 nM in data set [1] and 680 nM in [2].

In turn, `CNC(=O)c1ccc(NC(=O)N2CCN(C(=O)c3ccccc3C(F)(F)F)CC2)cc1` had an IC50 in [1] of over 10000 nM.

As for `CNC(=O)c1cccc(NC(=O)N2CCC(Oc3ccccc3C)CC2)c1`, the IC50 in data set [1] came out at 17 nM; in data set [2], 120 nM.

Turning to `CNC(=O)c1cccc(NC(=O)N2CCC(Oc3ccccc3Cl)CC2)c1`, the result in data set [7], in data set [8], in data set [11] and in [12] was Active. The molecule further came in with a bioavailability in [9] of 92%. Further, in [10], the Activity result is “Dose-dependent effect”. In addition, the result in data set [13] and in [14] was inactive. For the same molecule, the IC50 was under 4 nM in data set [1] and 37 nM in [2]. The clearance in data set [15] was 6.67 mL/min/kg. In data set [16], the Vd was determined as 0.4 L/kg.

For `CNC(=O)c1cccc(NC(=O)N2CCC(Oc3cccc(Cl)c3)CC2)c1`, the results for the IC50 in data set [1] and in data set [2] were 20 nM and 270 nM, respectively.

For the molecule `CC(C)NC(=O)c1cccc(NC(=O)N2CCC(Oc3ccccc3Cl)CC2)c1`, the figures for the IC50 in data set [1] and in data set [2] were 810 nM and 7100 nM, respectively.

Take `CCNC(=O)c1cccc(NC(=O)N2CCC(Oc3ccccc3Cl)CC2)c1`: the IC50 in data set [1] turned out to be 8 nM; in [2], 150 nM.

With `Cc1noc(-c2cccc(NC(=O)N3CCC(Oc4ccccc4Cl)CC3)c2)n1`, the figures for the IC50 in data set [1] and in [2] were 8 nM and 110 nM, respectively.

Consider `CNC(=O)c1cccc(NC(=O)N2CCC(Oc3ccc(F)cc3Cl)CC2)c1`, for which the IC50 turned out to be 6 nM in data set [1] and 58 nM in data set [2].

For `CNC(=O)c1cccc(NC(=O)N2CCC(Oc3c(F)cccc3Cl)CC2)c1`, the IC50 came to 330 nM in data set [1] and 9700 nM in data set [2].

Regarding `CNC(=O)c1cccc(NC(=O)N2CCC(Oc3cc(F)ccc3Cl)CC2)c1`, the results for the IC50 in [1] and in data set [2] were under 4 nM and 18 nM, respectively.

Regarding `NC(=O)c1cccc(NC(=O)N2CCC(Oc3ccccc3Cl)CC2)c1`, the figures for the IC50 in data set [1] and in [2] were 10 nM and 59 nM, respectively.

`O=C(Nc1ccccc1)N1CCC(Oc2ccccc2Cl)CC1`: the IC50 is 590 nM in [1] and 7500 nM in [2].

For `CNC(=O)c1cccc(NC(=O)N2CCC(Oc3ccccc3)CC2)c1`, the values for the IC50 in [1] and in [2] were 370 nM and 4000 nM, respectively.

With `CNC(=O)c1cccc(NC(=O)N2CCC(Oc3ccccc3OC)CC2)c1`, the IC50 was found to be 81 nM in data set [1] and 1900 nM in data set [2].

For the origin of these results see ChEMBL document CHEMBL1155886, “Discovery of piperidine-aryl urea-based stearoyl-CoA desaturase 1 inhibitors” (Bioorg Med Chem Lett, 2008).
